These are literature values, as cited in US20170128595A1, “MICROBIAL GROWTH INDICATING MEDICAL DEVICES” (Indicator Systems International, Inc., priority 2013, published 2017).

For this series the following is noted: fluorescein; ionization equilibrium gives pH-dependent absorption and emission over pH 5 to 9.

As to fluorescein, the pKa was 6.4.

Broadly, the pKa is the negative logarithm of the acid dissociation constant.
